One series relates to CASPASE-1-GSDMD pathway. Briefly: Western blot of CASPASE-1-GSDMD pathway in primary hepatocytes. Type of series: cell-based, C57BL/6J mice. As for the experimental part: (§1) The method of isolating primary mouse hepatocytes from mice (C57BL/6J) was that shown in the previous report, and it is briefly described in Supporting Information.
(§2) The cells were harvested and used for protein extraction after incubation for 48 h. […]
(§3) Supplementary materials and methods […]
(§4) Preparation of primary hepatocytes
(§5) Primary mouse hepatocytes were isolated from male C57BL/6J mice as shown in previous literature. The liver was perfused through the portal vei n with Hanks solution twice (the first solution contains 1% penicillin/streptomycin, the second solution contains 0.05% collagenase IV) after mice were anesthetized with ether, and then they were killed by exsanguination. Hepatocytes were harvested by centrifugation three times (The first centrifugal condition is 50 0 rpm for 3 minutes, the second and third centrifugal condition is 1500 rpm for 5 min) after the perfused liver was passed through 100 filter sizes, and they were re‐suspended in Dulbeco Modified Eagle Medium (DMEM) (Hyclone, USA).
(§6) Cells were collected and seeded at a density of 2 × 10^5 cells ml‐1 in plates and cultured overnight in William E (Gibco, USA) medium (0.5 U/mL insulin, 1% penicillin/streptomycin, 10% FBS and 0.4 μg/mL dexamethasone) at 37 ℃ in a humidified Air /CO2 Incubator (5% V/V). […]
QPCR were performed as described previously. Briefly, Trizol reagent (Life Technologi es, Carlsbad, CA, USA) and SYBR Green PCR master mixture (Vazyme, Nanjing, China) were used for the experiment . The qPCR was performed in the CFX Connect real‐time system (Bio‐Rad Laboratories, Hercules, CA, USA), with 18S was used as […]
The methods for Western blot analysis were described in previous literature. Briefly, RIPA (POO13B, Beyotime Biotech), BCA kit (P0009, Beyotime Biotech), and 5% BSA (A8020, Solarbio) buffer were used for the experiment. […]
(Immunoblotting shows a protein as a band on a membrane.)

Series [1] has as its target T1, CYP1A1 (Homo sapiens, UniProt P04798).
T1 construct: purchased Research Institute for Liver Diseases Co., Ltd. (Shanghai, China)
T1 sequence (P04798 1-512): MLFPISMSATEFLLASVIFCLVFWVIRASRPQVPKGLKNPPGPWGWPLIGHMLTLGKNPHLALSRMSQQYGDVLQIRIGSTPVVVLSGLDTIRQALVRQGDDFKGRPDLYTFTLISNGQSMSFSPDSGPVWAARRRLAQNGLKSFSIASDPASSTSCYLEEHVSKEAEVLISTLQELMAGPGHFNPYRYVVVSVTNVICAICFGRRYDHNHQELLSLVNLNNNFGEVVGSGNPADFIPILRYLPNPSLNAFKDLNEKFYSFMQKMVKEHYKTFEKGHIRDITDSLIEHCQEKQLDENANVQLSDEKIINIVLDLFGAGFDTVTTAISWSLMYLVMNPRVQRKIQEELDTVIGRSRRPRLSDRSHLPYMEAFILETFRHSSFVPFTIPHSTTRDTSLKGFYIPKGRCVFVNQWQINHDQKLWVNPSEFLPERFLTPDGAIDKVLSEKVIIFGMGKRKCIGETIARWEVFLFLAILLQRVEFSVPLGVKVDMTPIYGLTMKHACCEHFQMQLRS
Briefly: Inhibition of CYP1A1 demethylation metabolism of colchicine by co-incubation with inhibitor. Type of series: biochemical. The conditions noted are these: colchicine 25 µM co-cultured with α-naphthoflavone 10 µM; n = 3. As for the experimental part: The control group was a system without NADPH or colchicine. […] Pre-cooled acetonitrile was used to terminate the reaction, and then centrifugation (4 °C, 12,000 rpm, 20 min) was performed to obtain the sample.
All samples were analyzed as shown in [17] and are briefly described in Supporting Information.

Series [2] deals with liver. Briefly: α-Naphthoflavone intervention in colchicine-induced liver injury in mice. The series is classed as in vivo, C57BL/6J mice.
For series [3], the system named is liver. Briefly: Diosmin co-treatment in colchicine-induced liver injury in mice. Type of series: in vivo, C57BL/6J mice. The method, then:
To investigate the role of CYP1A1 in colchicine-induced liver injury in mice, a CYP1A1 agonist (diosmin) was used. […] All mice in the control group received 0.5% CMC-Na prior to the administration of water, and the mice were sacrificed for sample collection 24 h after the final administration.
Supplementary Materials: Inhibition of CYP1A1 Alleviates
(§7) Ruoyue Huang, Jingyi Duan, We n Huang, Ya n Cheng, Bei wei Zhu and Fei Li
(§8) Supplementary materials and methods
(§9) Reference numbers refer to the main text list
(§10) UHPLC‐Q exactive plus MS Analysis
(§11) All samples were analyzed on a liquid chromatography system including a Vanquish autosampler, Vanquish detector, Vanquish pump (Thremo Fisher Scientific, Santa Clara, CA). Samples were separated on an ACQUITY UPLC HSS T3 column (2.1×100 mm, […], Waters, USA). The injection volume: 5 μL, and the flow rate was 0.3 mL/min.
Phase A was H2O containing 0.01% formic acid, and phase B was acetonitrile containing 0.01% formic acid. The elution gradient was as follows: 0‐12 mi n, 2‐98% B; 12‐14 min, 2% A; 14‐16 min, 98% A. Other parameters are as follows: column temperature 45 ℃ , flow rate of collision gas and dry gas 9 L/min. Capillary voltage 3.5 kV, temperature 350 ℃ , atomizer pressure 35 psi. […]
(§12) Quantitative real‐time PCR analysis […]
(§13) Immunohistochemistry was determined by used the previously described method. […]

In the next series the test system is primary hepatocytes. Briefly: MTT cell viability in primary hepatocytes co-treated with colchicine and diosmin. Type of series: cell-based, C57BL/6J mice. The following applies: diosmin pre-treatment 2 h, then colchicine 100 µM, 48 h.
Excerpt: The method of isolating primary mouse hepatocytes from mice (C57BL/6J) was that shown in the previous report, and it is briefly described in Supporting Information. […]
as §3, §4, §5, §6
QPCR were performed as described previously. Briefly, Trizol reagent (Life Technologi es, Carlsbad, CA, USA) and SYBR Green PCR master mixture (Vazyme, Nanjing, China) were used for the experiment . […]

Series [4] has as its system CYP1A1. Briefly: CYP1A1 gene and protein expression in primary hepatocytes. Type of series: cell-based, C57BL/6J mice. The following applies: colchicine 4–400 µM, 48 h. As for the experimental part: as §1, §2, §3, §4, §5
Cells were collected and seeded at a density of 2 × 10^5 cells ml‐1 in plates and cultured overnight in William E (Gibco, USA) medium (0.5 U/mL insulin, 1% penicillin/streptomycin, 10% FBS and 0.4 μg/mL dexamethasone) at 37 ℃ in a humidified Air /CO2 Incubator (5% V/V).
Quantitative real‐time PCR analysis
QPCR were performed as described previously. […]

For series [5], the system named is CYP1A1. Briefly: CYP1A1 gene and protein expression in the liver of colchicine-treated mice. Type of series: in vivo, C57BL/6J mice. The following applies: colchicine 3, 5 mg/kg by gavage for 3 days; dose-dependent. The method, then:
as §7, §8, §9, §10, §11
Phase A was H2O containing 0.01% formic acid, and phase B was acetonitrile containing 0.01% formic acid. The elution gradient was as follows: 0‐12 mi n, 2‐98% B; 12‐14 min, 2% A; 14‐16 min, 98% A. Other parameters are as follows: column temperature 45 ℃ , flow rate of collision gas and dry gas 9 L/min. Capillary voltage 3.5 kV, temperature 350 ℃ , atomizer pressure 35 psi. Vanquish UHPLC‐Q Exactive plus MS (Thermo Fisher, USA) was collected in both positive modes, operating in full scan mode with 60‐900 m/z.
as §4
Primary mouse hepatocytes were isolated from male C57BL/6J mice as shown in previous literature. […]
as §12, §13

In series [6] the test system is liver. Briefly: Colchicine-induced liver injury in mice.
Experimental: The animal studies were approved by the Animal Care and Use Committee of West China Hospital, Sichuan University (20230412004, the ethics approval date was 12 April 2023). Chengdu Yaokang Biotechnology Co., Ltd. (Chengdu, China), provided the male C57BL/6J mice (18–22 g, 6 to 8 weeks old, No. SCXK (Sichuan) 2020-034). All animals were acclimated to the experimental environment for 1 week, and finally, the animals were anesthetized with CO2 and killed [38].
ALP, ALT and AST were measured in plasma, and MDA (Nanjing Jiancheng Bioengineering Institute, Nanjing, China) was measured in the liver. Histological characteristics were observed by preparing paraffin sections of liver tissue and performing hematoxylin and eosin (H&E) staining.
[7] abbreviates: colchicine 3, 5 mg/kg by gavage for 3 consecutive days.

SMILES strings stand for the structures.

Consider `O=c1cc(-c2ccccc2)oc2c1ccc1ccccc12` [α-naphthoflavone], for which the “CASPASE-1-GSDMD pathway protein levels in primary hepatocytes” value with CASPASE-1-GSDMD pathway (colchicine + different concentrations of α-naphthoflavone, dose-gradient manner, versus colchicine group) is “restored the abnormal protein levels”. The “demethylation metabolism of colchicine by CYP1A1” value on CYP1A1 [1] was “significantly inhibited”. In addition, the “colchicine-induced liver injury (AST, ALT enzyme activity and MDA oxidative stress)” value in the series on liver [2] (α-naphthoflavone 30 mg/kg i.p. 2 h prior to colchicine 5 mg/kg, 3 days) is given as “significantly alleviated”. For the same molecule, the “CASPASE-1-GSDMD pathway proteins (cl-CASPASE, cl-GSDMD) in the liver” value with liver [2] (α-naphthoflavone 30 mg/kg i.p. + colchicine 5 mg/kg, versus colchicine group) is recorded as “significantly down-regulated”.

Take `COc1ccc(-c2cc(=O)c3c(O)cc(O[C@@H]4O[C@H](CO[C@@H]5O[C@@H](C)[C@H](O)[C@@H](O)[C@H]5O)[C@@H](O)[C@H](O)[C@H]4O)cc3o2)cc1O` [diosmin]: the “colchicine-induced CASPASE-1-GSDMD pathway activation in the liver (cl-CASPASE, cl-GSDMD)” value with liver [3] (diosmin 100 mg/kg + colchicine 5 mg/kg, versus colchicine group) is listed as “enhanced”. Further, the “colchicine-induced hepatotoxicity (MDA, AST, ALT, ALP)” value with liver [3] (diosmin 100 mg/kg by gavage 2 h prior to colchicine 5 mg/kg) is listed as “effectively aggravated”. Also, the “primary hepatocyte death caused by colchicine (MTT)” value in the series on primary hepatocytes is given as “exacerbated”. The “CASPASE-1-GSDMD pathway in primary hepatocytes” value in the series with CASPASE-1-GSDMD pathway (diosmin in a dose-gradient manner + colchicine 100 µM, compared to the colchicine-only group) was “significantly up-regulated”.

On to `COc1cc2c(c(OC)c1OC)-c1ccc(OC)c(=O)cc1[C@@H](NC(C)=O)CC2` [colchicine, Colchicine], for which, in the series on CYP1A1 [4], the “mRNA and protein levels of CYP1A1 in primary hepatocytes” value is on record as “dose-dependently increased”. Besides, in the series with CYP1A1 [5], the “mRNA and protein levels of the CYP1A1 enzyme in the liver” value was “increased”. Further, in the series with CASPASE-1-GSDMD pathway (colchicine group versus control), the “CASPASE-1-GSDMD pathway in primary hepatocytes” value is listed as “significantly up-regulated”. The “CASPASE-1-GSDMD pathway in the liver” value in the series on liver [6] (colchicine 5 mg/kg, versus control group) is recorded as “activated”. For the same molecule, in the series on liver [6] (setting [7]), the “ALP enzyme level in plasma” value is “significantly increased”; the “ALT enzyme level in plasma” value is reported as “significantly increased”; the “AST enzyme level in plasma” value is given as “significantly increased”; the “CASPASE-1 in the liver (gene expression, immunohistochemical staining)” value was “activated”. Further, in the series with liver [6] (setting [7]), the “body weight of mice” value was “decreased significantly”; the “gross anatomy of the liver” value is “enlarged liver and shrunken gallbladder”; the “liver histology, H&E staining” value was “inflamed liver”.
